Structures are written as SMILES.

The melting point is the temperature of the solid-liquid transition. `COc1ccc(-c2cnc(SCC(=O)NCC[C@@H]3C[C@@H](Cc4ccc(Cl)c(Cl)c4)CN3)nc2)cc1OC.Cl` had a melting point of 100.5 to 102.1 °C.

These data come from patent publication US6552028B2, “2,4-substituted pyrrolidine derivatives-CCR-3 receptor antagonists” (Syntex (U.S.A.) LLC, priority 2000, dated 2003).
